The results in this text go back to patent publication US20260138961A1, “MODULATORS OF MITOCHONDRIAL DNA REPLICATION” (Pretzel Therapeutics, Inc., priority 2022, published 2026).

Molecules are shown by their SMILES.

The test concerns the target T1, POLγ W748S + E1143G (Homo sapiens, UniProt P54098, E1143G/W748S).
T1 sequence (P54098 1-1239 W748S/E1143G): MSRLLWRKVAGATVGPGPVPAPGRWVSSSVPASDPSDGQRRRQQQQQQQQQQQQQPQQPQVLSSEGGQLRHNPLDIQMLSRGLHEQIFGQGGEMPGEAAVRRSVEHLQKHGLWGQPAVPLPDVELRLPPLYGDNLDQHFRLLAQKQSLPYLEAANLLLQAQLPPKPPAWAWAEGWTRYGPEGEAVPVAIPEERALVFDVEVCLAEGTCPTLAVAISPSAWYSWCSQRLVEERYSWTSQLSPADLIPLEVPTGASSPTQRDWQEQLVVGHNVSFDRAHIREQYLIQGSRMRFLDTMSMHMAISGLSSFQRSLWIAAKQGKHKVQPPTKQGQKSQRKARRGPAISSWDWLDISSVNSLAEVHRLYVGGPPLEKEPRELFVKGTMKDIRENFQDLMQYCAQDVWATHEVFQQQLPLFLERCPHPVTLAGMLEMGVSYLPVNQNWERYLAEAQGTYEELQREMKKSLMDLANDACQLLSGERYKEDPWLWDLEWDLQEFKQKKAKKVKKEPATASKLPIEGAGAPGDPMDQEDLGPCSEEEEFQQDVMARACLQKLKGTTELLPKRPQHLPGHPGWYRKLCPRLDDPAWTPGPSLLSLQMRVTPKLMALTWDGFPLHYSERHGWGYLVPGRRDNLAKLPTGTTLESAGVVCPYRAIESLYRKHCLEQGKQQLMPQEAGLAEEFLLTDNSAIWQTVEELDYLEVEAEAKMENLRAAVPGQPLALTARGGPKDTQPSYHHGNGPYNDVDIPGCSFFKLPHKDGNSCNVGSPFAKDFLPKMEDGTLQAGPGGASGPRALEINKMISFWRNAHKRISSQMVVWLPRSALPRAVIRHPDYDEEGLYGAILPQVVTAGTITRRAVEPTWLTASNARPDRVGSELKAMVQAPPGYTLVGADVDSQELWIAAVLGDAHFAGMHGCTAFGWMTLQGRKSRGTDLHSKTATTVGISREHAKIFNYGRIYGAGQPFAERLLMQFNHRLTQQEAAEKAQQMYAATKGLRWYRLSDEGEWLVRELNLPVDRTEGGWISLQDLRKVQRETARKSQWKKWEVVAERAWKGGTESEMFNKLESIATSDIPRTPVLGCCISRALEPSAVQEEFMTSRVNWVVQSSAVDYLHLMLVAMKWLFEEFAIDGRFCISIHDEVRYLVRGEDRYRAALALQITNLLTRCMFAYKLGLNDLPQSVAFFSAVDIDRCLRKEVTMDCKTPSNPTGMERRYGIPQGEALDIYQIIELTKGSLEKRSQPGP
T1 sequence (Q9UHN1 1-485 partner): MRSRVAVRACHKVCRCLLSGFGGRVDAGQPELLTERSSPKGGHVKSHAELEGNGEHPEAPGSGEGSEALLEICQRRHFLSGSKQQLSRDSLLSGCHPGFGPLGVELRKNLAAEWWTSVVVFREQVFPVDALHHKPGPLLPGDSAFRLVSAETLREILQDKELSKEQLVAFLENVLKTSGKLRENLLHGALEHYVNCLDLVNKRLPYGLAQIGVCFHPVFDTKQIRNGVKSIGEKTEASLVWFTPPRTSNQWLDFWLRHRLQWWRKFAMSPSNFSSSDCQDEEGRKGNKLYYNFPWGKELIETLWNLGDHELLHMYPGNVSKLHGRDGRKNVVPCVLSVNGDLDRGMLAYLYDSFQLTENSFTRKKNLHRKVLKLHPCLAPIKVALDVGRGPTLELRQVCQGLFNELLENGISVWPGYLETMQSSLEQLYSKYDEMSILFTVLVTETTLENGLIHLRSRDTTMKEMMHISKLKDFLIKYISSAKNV
The experiment in a line: DNA polymerization assay, W748S + E1143G mutant. Format: biochemical. As to conditions: stimulation of polymerase activity, primed M13mp18 ssDNA, 37° C. 2 hours. The method, then: DNA Polymerization Assay to Monitor Effects on Human Wildtype POLγ and Four Disease-Causing Mutant Variants of Human POLγ.
The ability of small molecules to stimulate the polymerase activity of POLγ was analyzed in a quantitative fluorescence SYBR Green I assay with fluorescence intensity (FI) readout.
In the presence of dNTPs, wild type human POLγ and mutant derivatives thereof were incubated with single-stranded, circular M13mp18 ssDNA hybridized to a short DNA oligonucleotide that functions as a primer for initiation of DNA synthesis. POLγ and mutant derivatives thereof will extend the primer and use the M13mp18 molecule as a template to synthesize long stretches of double-stranded DNA. SYBR Green I, which is a double-stranded DNA-binding dye, was used to quantify formation of double-stranded DNA in the reaction. When bound to double-stranded DNA, SYBR Green I fluorescence increases by up to 100-fold.
The assay was performed in the 384-well plate format. Upon addition of compounds, changes in double-stranded DNA synthesis activity can be monitored by following effects on fluorescent intensity.
The reactions also contained the accessory POLγB subunit, and the human mitochondrial single-stranded DNA binding protein (mtSSB).
The DNA template mixture used in the assay contained 0.5 nM primed M13 mp18 ssDNA, 400 nM mtSSB, 0.1 mM Tris-HCl (pH 8.0), 0.1 mM dNTP, 10 mM MgCl2, 0.1 mg/mL BSA, 1 mM TCEP solution, and 0.02% Triton X-100. The DNA template mixture for the wild type protein contained either 100 μM dNTP, 1 μM dNTP, or 0.1 μM dNTP, designated in Table 2 as 100 μM, 1 μM, and 0.1 μM, respectfully.
Microplates with compounds (0.1 μL in each well) to be tested in the assay were prepared from 10 mM compound stocks in 100% DMSO, and equal amounts of DMSO without any compound were added to positive and negative control wells.
The protein mixture was dispensed (5 μL into each well) into compound plates and incubated at 37° C. for 15 minutes. After incubation, 5 μL of the DNA template mixture was dispensed into each well. The plates were then incubated at 37° C. for 2 hours.
During incubation, a combined stop buffer and detection reagent solution was prepared. The buffer contained 25 mM EDTA (pH 8.0), 0.02% Triton X-100, and SYBR Green I [Invitrogen] diluted 10,000× (for fluorescent readout). EDTA will stop the enzymatic reaction by chelating magnesium ions.
For the molecule `Cc1cc(S(=O)(=O)Nc2cccc(C(=O)NCc3ccccc3)c2)c(C)cc1Cl` [Example 11, N-benzyl-3-((4-chloro-2,5-dimethylphenyl)sulfonamido)benzamide], the AC50 was 19 µM.

On to `Cc1cnc(-c2ccc(C)c(NS(=O)(=O)c3cc(C)c(Cl)cc3C)c2)s1` [Example 98, 4-chloro-2,5-dimethyl-N-(2-methyl-5-(5-methylthiazol-2-yl)phenyl)benzenesulfonamide], for which the AC50 was over 100 µM.

In the case of `Cc1cc(S(=O)(=O)Nc2cc(F)cc(C(=O)N3CCC[C@H]3C)c2)c(C)cc1Cl` [Example 13, (R)-4-chloro-N-(3-fluoro-5-(2-methylpyrrolidine-1-carbonyl)phenyl)-2,5-dimethylbenzenesulfonamide], the AC50 came to 4 µM.

As for `Cc1cc(S(=O)(=O)Nc2cccc(-c3ncc(C#N)s3)c2)c(C)cc1Cl` [Example 96, 4-chloro-N-(3-(5-cyanothiazol-2-yl)phenyl)-2,5-dimethylbenzenesulfonamide], the AC50 amounted to 2 µM.

As for `Cc1cnc(-c2cc(NS(=O)(=O)c3cc(C)c(Cl)cc3C)ccc2C)s1` [Example 103, 4-chloro-2,5-dimethyl-N-(4-methyl-3-(5-methylthiazol-2-yl)phenyl)benzenesulfonamide], the AC50 was over 100 µM.

For the molecule `Cc1cc(S(=O)(=O)Nc2cccc(C(=O)N3CCC[C@H]3C)c2)c(C)cc1Cl` [Example 10, (R)-4-chloro-2,5-dimethyl-N-(3-(2-methylpyrrolidine-1-carbonyl)phenyl)benzenesulfonamide], the AC50 came out at 2 µM.
